This passage reports IC50 results from patent US20250136612A1, “4',5'-DIHYDROSPIRO[PIPERIDINE-4,7'-THIENO[2,3-C]PYRAN] DERIVATIVES AS INHIBITORS OF APOL1 AND METHODS OF USING SAME” (VERTEX PHARMACEUTICALS INCORPORATED, priority 2022, published 2025).

The structures appear in SMILES notation.

The test deals with T1, APOL1 (Homo sapiens, UniProt O14791).
T1 sequence (O14791 1-398 S342G/I384M): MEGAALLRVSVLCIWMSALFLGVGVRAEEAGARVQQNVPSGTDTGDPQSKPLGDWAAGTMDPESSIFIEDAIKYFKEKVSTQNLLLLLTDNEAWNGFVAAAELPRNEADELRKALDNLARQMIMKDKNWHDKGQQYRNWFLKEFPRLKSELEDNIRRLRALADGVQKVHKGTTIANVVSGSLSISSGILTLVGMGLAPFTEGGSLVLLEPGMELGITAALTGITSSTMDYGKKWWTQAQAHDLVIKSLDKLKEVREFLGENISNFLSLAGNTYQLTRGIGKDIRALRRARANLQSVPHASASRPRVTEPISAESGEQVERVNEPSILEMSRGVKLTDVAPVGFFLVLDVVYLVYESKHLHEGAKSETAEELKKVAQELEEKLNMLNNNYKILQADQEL
Put plainly: MultiTox-Fluor Multiplex Cytotoxicity Assay in tet-inducible APOL1 T-REx-HEK293 cells. It counts as cell-based. Conditions: 50 ng/mL tet, 24 hours, ratio of dead to live cells, read-out: IP50 (i.e., IC50 for cell proliferation). Here is the method: The MultiTox-Fluor Multiplex Cytotoxicity Assay is a single-reagent-addition, homogeneous, fluorescence assay that measures the number of live and dead cells simultaneously in culture wells. The assay measures cell viability and cytotoxicity by detecting two distinct protease activities. The live-cell protease activity is restricted to intact viable cells and is measured using a fluorogenic, cell-permeant peptide glycyl-phenylalanylamino fluorocoumarin (GF-AFC) substrate. The substrate enters intact cells, where it is cleaved to generate a fluorescent signal proportional to the number of living cells. […] A second, cell-impermeant, fluorogenic peptide substrate (bis-AAF-R110 Substrate) is used to measure dead-cell protease that has been released from cells that have lost membrane integrity. A ratio of dead to live cells is used to normalize data.
Briefly, the tet-inducible transgenic APOL1 T-REx-HEK293 cell lines were incubated with 50 ng/mL tet to induce APOL1 in the presence of 3-(2-(4-fluorophenyl)-1H-indol-3-yl)-N-((3S,4R)-4-hydroxy-2-oxopyrrolidin-3-yl)propenamide at 10.03, 3.24, 1.13, 0.356, 0.129, 0.042, 0.129, 0.0045, 0.0015, 0.0005 μM in duplicate for 24 hours in a humidified 37° C. incubator. The MultiTox reagent was added to each well and placed back in the incubator for an additional 30 minutes. The plate was read on the EnVision plate reader. A ratio of dead to live cells was used to normalize, and data was imported, analyzed, and fit using Genedata Screener (Basel, Switzerland) software. Data was normalized using percent of control, no tet (100% viability), and 50 ng/mL tet treated (0% viability),and fit using Smart Fit. The reagents, methods, and complete protocol for the MultiTox assay are described below.
Human embryonic kidney (HEK293) cell lines containing a tet-inducible expression system (T-REx™; Invitrogen, Carlsbad, CA) and Adeno-associated virus site 1 pAAVS1-Puro-APOL1 G0 or pAAVS1-Puro-APOL1 G1 or pAAVS1-Puro-APOL1 G2 Clones G0 DC2.13, G1 DC3.25, and G2 DC4.44 were grown in a T-225 flask at ˜90% confluency in cell growth media (DMEM, 10% Tet-free FBS, 2 mM L-glutamine, 100 Units/mL penicillin-streptomycin, 5 μg/mL blasticidin S HCl, 1 μg/mL puromycin dihydrochloride). Cells were washed with DPBS and then trypsinized to dissociate from the flask. Media was used to quench the trypsin, cells were then pelleted at 200 g and resuspended in fresh cell assay media (DMEM, 2% Tet-free FBS, 2 mM L-glutamine, 100 Units/mL penicillin-streptomycin). Cells were counted and diluted to 1.17×10^6 cells/mL. 20 μL of cells (23,400/well) were dispensed in every well of a 384-well Poly-D-Lysine coated plate using the Multidrop dispenser. The plates were then incubated at room temperature for one hour.
Tetracycline is needed to induce APOL1 expression. 1 mg/mL tet stock in water was diluted to 250 ng/mL (5×) in cell assay media. 60 μL of cell assay media (no tet control) was dispensed in columns 1 and 24, and 60 μL of 5×tet in 384-PP-round bottom plate was dispensed in columns 2 to 23 with the Multidrop dispenser.
Assay ready plates from the Global Compound Archive were ordered using template 384_APOL1Cell_DR10n2_50 uM_v3. Compounds were dispensed at 200 nL in DMSO. The final top concentration was 10 μM with a 10 point 3-fold dilution in duplicate in the MultiTox assay.
20 μL was transferred from the 5×tet plate to the ARP and mixed, then 5 μL of 5×tet and the compounds were transferred to the cell plate and mixed using the Bravo. The cell plate was placed in the humidified 37° C. 5% CO2 incubator for 24 hours.
The MultiTox-Fluor Multiplex Cytotoxicity Assay was performed in accordance with the manufacturer's protocol. After cells were incubated with tet and compound for 24 hours, 25 μL of 1×MultiTox reagent was added to each well using the Multidrop dispenser; the plates were placed on a plate shaker (600 rpm) for 2 minutes, then centrifuged briefly and placed back in the 37° C. incubator for 30 minutes. […]
On to `Cc1cc([C@@H]2C[C@]3(CCN2)OCC(O)c2cc(Cl)sc23)on1` (stereo partly drawn) [Compound 34, (2S,4S)-2′-chloro-2-(3-methylisoxazol-5-yl)-4′,5′-dihydrospiro[piperidine-4,7′-thieno[2,3-c]pyran]-4′-ol], for which the IC50 lay within 100 to 500 nM.
To `Cn1cc([C@@H]2C[C@]3(CCN2)OCC(O)c2cc(Cl)sc23)nn1` (stereo partly drawn) [Compound 35, (2S,4S)-2′-chloro-2-(1-methyl-1H-1,2,3-triazol-4-yl)-4′,5′-dihydrospiro[piperidine-4,7′-thieno[2,3-c]pyran]-4′-ol] belongs 100 to 500 nM; to `Cn1cc([C@@H]2C[C@]3(CCN2)OCC(O)c2cc(Cl)sc23)nn1` (stereo partly drawn) [Compound 36, (2S,4S)-2′-chloro-2-(1-methyl-1H-1,2,3-triazol-4-yl)-4′,5′-dihydrospiro[piperidine-4,7′-thieno[2,3-c]pyran]-4′-ol], 100 to 500 nM.
`Cn1cc([C@@H]2C[C@]3(CCN2)OCC(=O)c2cc(Cl)sc23)nn1` [Compound 41, (2S,4S)-2′-chloro-2-(1-methyltriazol-4-yl)spiro[piperidine-4,7′-thieno[2,3-c]pyran]-4′-one]: the IC50 is 100 to 500 nM.
Next, `[2H]C1([2H])CO[C@]2(CCN[C@H](c3cn(C)nn3)C2)c2sc(Cl)cc21` [Compound 43, (2'S, 7S)-2-chloro-4,4-dideuterio-2′-(1-methyltriazol-4-yl)spiro[5H-thieno[2,3-c]pyran-7,4′-piperidine]]: 100 to 500 nM.
Next, `Cn1cc(C2CC3(CCN2)OCCc2cc(C4CC(F)(F)C4)sc23)nn1` (centres unmarked) [Compound 46, 2-(3,3-difluorocyclobutyl)-2′-(1-methyltriazol-4-yl)spiro[4,5-dihydrothieno[2,3-c]pyran-7,4′-piperidine]]: 100 to 500 nM.
Next, `Cn1cc(C2CC3(CCN2)OCC(O)c2cc(C4CC(F)(F)C4)sc23)nn1` (centres unmarked) [Compound 47]: 500 to 1000 nM; `Cn1cc([C@@H]2CC3(CCN2)OCCc2cc(CC(F)(F)F)sc23)nn1` (some centres unmarked) [Compound 48]: 100 to 500 nM; `Cn1cc(C2CC3(CCN2)OCCc2cc(CC(F)F)sc23)nn1` (centres unmarked) [Compound 49]: less than 100 nM.
In the case of `FC(F)Cc1cc2c(s1)C1(CCNC(c3ccccc3)C1)OCC2` (centres unmarked) [Compound 50], the IC50 was in the range of 100 to 500 nM.
To `Cn1cc([C@@H]2CC3(CCN2)OCCc2c3sc(C(F)(F)F)c2CO)nn1` (stereo partly drawn) [Compound 51, ((2S)-2-(1-methyl-1H-1,2,3-triazol-4-yl)-2′-(trifluoromethyl)-4′,5′-dihydrospiro[piperidine-4,7′-thieno[2,3-c]pyran]-3′-yl)methanol] belongs less than 100 nM; to `NC(=O)c1cccc(-n2cc([C@@H]3C[C@]4(CCN3)OCCc3cc(Cl)sc34)nn2)c1` [Compound 54, 3-(4-((2S,4S)-2′-chloro-4′,5′-dihydrospiro[piperidine-4,7′-thieno[2,3-c]pyran]-2-yl)-1H-1,2,3-triazol-1-yl)benzamide], less than 100 nM; to `Clc1cc2c(s1)[C@@]1(CCN[C@H](c3cn(-c4ccccc4)nn3)C1)OCC2` [Compound 55, (2S,4S)-2′-chloro-2-(1-phenyl-1H-1,2,3-triazol-4-yl)-4′,5′-dihydrospiro[piperidine-4,7′-thieno[2,3-c]pyran]], 100 to 500 nM.
To `O=C1NCc2ccc(-n3cc([C@@H]4C[C@]5(CCN4)OCCc4cc(Cl)sc45)nn3)cc21` [Compound 56] belongs less than 100 nM; to `NC(=O)c1cc(-n2cc([C@@H]3C[C@]4(CCN3)OCCc3cc(Cl)sc34)nn2)ccc1F` [Compound 57], less than 100 nM; to `CNC(=O)c1cc(-n2cc([C@@H]3C[C@]4(CCN3)OCCc3cc(Cl)sc34)nn2)ccc1OC` [Compound 58], 100 to 500 nM.
Next, `NC(=O)c1ccc(-n2cc([C@@H]3C[C@]4(CCN3)OCCc3cc(Cl)sc34)nn2)cc1` [Compound 59]: 100 to 500 nM; `CN1Cc2cc(-n3cc([C@@H]4C[C@]5(CCN4)OCCc4cc(Cl)sc45)nn3)ccc2C1=O` [Compound 60]: 100 to 500 nM.
Regarding `O=C1NCc2cc(-n3cc([C@@H]4C[C@]5(CCN4)OCCc4cc(Cl)sc45)nn3)ccc21` [Compound 61], the IC50 lay within 100 to 500 nM.
To `CN1Cc2ccc(-n3cc([C@@H]4C[C@]5(CCN4)OCCc4cc(Cl)sc45)nn3)cc2C1=O` [Compound 62] belongs 100 to 500 nM.
To `Clc1cc2c(s1)[C@@]1(CCN[C@H](c3cn(-c4cccnc4)nn3)C1)OCC2` [Compound 63] belongs 100 to 500 nM.
To `Clc1cc2c(s1)[C@@]1(CCN[C@H](c3cn(-c4ccncc4)nn3)C1)OCC2` [Compound 64] belongs 100 to 500 nM.
For the compound `Oc1ccc(-n2cc([C@@H]3C[C@]4(CCN3)OCCc3cc(Cl)sc34)nn2)cc1` [Compound 65], the IC50 was 100 to 500 nM.
To `COc1ccccc1-n1cc([C@@H]2C[C@]3(CCN2)OCCc2cc(Cl)sc23)nn1` [Compound 66] belongs 100 to 500 nM; to `COc1ccc(-n2cc([C@@H]3C[C@]4(CCN3)OCCc3cc(Cl)sc34)nn2)cc1` [Compound 67], 100 to 500 nM.
As for `CN(C)C(=O)c1ccc(-n2cc([C@@H]3C[C@]4(CCN3)OCCc3cc(Cl)sc34)nn2)cc1` [Compound 68], the IC50 lay in the range of 100 to 500 nM.
Next, `Clc1cc2c(s1)[C@@]1(CCN[C@H](c3cn(-c4ccccn4)nn3)C1)OCC2` [Compound 69]: 100 to 500 nM; `Fc1cccc(-n2cc([C@@H]3C[C@]4(CCN3)OCCc3cc(Cl)sc34)nn2)c1` [Compound 70]: 100 to 500 nM.
`COc1cccc(-n2cc([C@@H]3C[C@]4(CCN3)OCCc3cc(Cl)sc34)nn2)c1` [Compound 71]: the IC50 was in the range of 100 to 500 nM.
To `Fc1ccc(-n2cc([C@@H]3C[C@]4(CCN3)OCCc3cc(Cl)sc34)nn2)cc1` [Compound 72] belongs 500 to 1000 nM; to `CS(=O)(=O)CCn1cc([C@@H]2C[C@]3(CCN2)OCCc2cc(Cl)sc23)nn1` [Compound 73], 500 to 1000 nM.
`Fc1ccccc1-n1cc([C@@H]2C[C@]3(CCN2)OCCc2cc(Cl)sc23)nn1` [Compound 74]: the IC50 is 500 to 1000 nM.
To `Oc1ccccc1-n1cc([C@@H]2C[C@]3(CCN2)OCCc2cc(Cl)sc23)nn1` [Compound 75] belongs 500 to 1000 nM; to `COCCn1cc([C@@H]2C[C@]3(CCN2)OCCc2cc(Cl)sc23)nn1` [Compound 76], 500 to 1000 nM; to `Clc1cc2c(s1)[C@@]1(CCN[C@H](c3c[nH]nn3)C1)OCC2` [Compound 77], 500 to 1000 nM.
